Article PMC9101764, “Synthesis and In Vitro Characterization of Selective Cannabinoid CB2 Receptor Agonists: Biological Evaluation against Neuroblastoma Cancer Cells” (Molecules, 2022)
Where two headings read alike, the source gives them in different places.

Assays:
hCB2R [1] = target: T1, hCB2R (Homo sapiens, UniProt P34972); test: PathHunter β-arrestin2 recruitment assay in CHO cells; type: cell-based
T1 construct: host or cells: HitHunter CHO-K1 cells
Procedure: Compounds FG158a, FG160a, FG161a, and LV62 were also evaluated for their ability to recruit β-arrestin2, since G protein-coupled receptors also interact with β-arrestin, which facilitates receptor internalization, recycling, degradation, and signaling.
(§1) CHO cells stably expressing hCB1R or hCB2R were maintained at 37 °C and 5% CO2 in Gibco Ham’s F-12 nutrient mix (Fisher Scientific, Loughborough, UK ) supplemented with 2 mM L-glutamine, 10% fetal bovine serum (FBS), 0.6% penicillin−streptomycin (Fisher Scientific, Loughborough UK), and the disulfate salt of geneticin (G418) as previously described (Sigma-Aldrich, Poole, UK). For subsequent radioligand displacement assays, membranes were prepared by scraping cells from flasks, centrifuging the cells, and storing the cell pellet at −20 °C. When required for us, cell pellets were defrosted and diluted in tris buffer (50 mM Tris-HCl and 50 mM Tris-base). As we have described in previous studies, HitHunter (cAMP) and PathHunter (βarrestin2) CHO-K1 cells stably expressing hCB1R or hCB2R from DiscoveRx® (Eurofins, Fremont, CA, USA) were maintained at 37 °C, 5% CO2 in F-12 DMEM containing 10% FBS and 1% Pen/Strep with 800 µg/mL geneticin (HitHunter) or 800 µg/mL G418 and 300 µg/mL hygromycin B (PathHunter).
The quantification of β-arrestin2 recruitment using the DiscoveRx PathHunter assay has been described by our group previously and is summarized here.. Twenty thousand cells/well were grown overnight in Opti-MEM containing 1% FBS at 37 °C and 5% CO2 in low-volume 96 well plates. The next day, cells were treated with compounds for 90 min at 37 °C. Detection solution was added to cells according to the manufacturer’s directions (DiscoveRx) and cells were stored for 60 min at room temperature. After this incubation, chemiluminescence was quantified on a Cytation5 plate reader (top read, gain 200, integration time 10,000 ms).
(§2) Estimates of Ki, EC50, and Emax were determined using non-linear regression three-parameters (GraphPad, Prism, v. 9.0).
(§3) Data are fitted to a non−linear regression (three parameter model, GraphPad v. 9.0). Data are mean ± S.E.M. of 6 independent experiments performed in triplicate.

SH-SY5Y cells [2] = test: Sulforhodamine B (SRB) cell viability assay; type: cell-based, human; details: for effect on cell viability: 24 h, 48 h and 72 h, 2.5–40 µM; for IC50: Homo sapiens, 72 h of treatment, SRB, cis/trans mixture
Procedure: We tested the anti-proliferative activity of the novel CB2R agonists FG158a, FG160a, FG161a, and LV62 in neuroblastoma cell lines (Figure 4). The compounds were assayed as a mixture of cis and trans isomers. […] After 72 h of treatment, the effect was higher and could also be observed at lower concentrations. The inhibitory effect was confirmed in another neuroblastoma cell line, SK-N-BE cells.
Human neuroblastoma SHSY5Y and SK-N-BE cell lines were grown in DMEM (GIBCO, Paisley, UK) and MEM (Sigma-Aldrich, St.Louis, MO, USA), respectively, supplemented with 2 mM l-glutamine, […], 50 units/mL penicillin and 10% heat-inactivated fetal bovine serum (FBS) in a humidified atmosphere (5% CO2 at 37 °C). Cells were detached as previously described with 0.25% trypsin (Sigma-Aldrich) at 70–80% confluence.
(§4) Cells seeded for 24 h in triplicate in 96-well plates at a density of 8000 cells/well were left to adhere overnight. CB2R agonists were added to the culture in triplicate at concentrations ranging from 2.5–40 µM. After 24 h, 48 h, and 72 h, cells were fixed, shaking for 2 h at 4 °C with 50% v/v trichloroacetic acid and washed with distilled water. Cells left overnight to dry were stained with 0.4% w/v SRB in 1% v/v acetic acid (at room temperature for 30 min on a shaker) and then washed with 1% acetic acid to allow for the removal of the unbound dye. TRIS-HCl 10 mM, pH 7.4 was added to the cells and absorbance was measured at 495 nm as previously shown using a Glomax® Discover Microplate Reader (Promega, Madison, WI, USA). In combinatory assays, similar procedures were adopted and the CB2R antagonist SR144528 (1 µM) was added 1 h before the CB2 agonists (10, 20 and 40 µM) to SHSY5Y cells that were harvested as described above after 72 h of incubation.
Figure 4 Inhibition of cell viability. The effect on cell viability by CB2R agonists was determined by sulforhodamine B (SRB) assays in SH-SY5Y and SK-N-BE cell lines. SH-SY5Y cells were treated with the compounds indicated in the figure for 24 h (A), 48 h (B), and 72 h (C) at the concentrations reported in the histograms. SK-N-BE cells were treated with the same compounds for 72 h (D). Figures report cell viability (mean of at least 3 independent experiments ± SEM) as percent of cell survival vs. untreated cells (considered as 100% of survival). […] The statistical significance was calculated with two-way ANOVA using Dunnett’s multiple comparisons test.

hCB2R [3] = target: T1, hCB2R; test: HitHunter cAMP assay: inhibition of FSK-stimulated cAMP accumulation in CHO cells; type: cell-based; details: for modulation of cAMP response: CHO cells expressing hCB2R
Procedure: For the cAMP inhibition assay, cells were treated with 10 μM FSK and synthetized compounds for 90 min to assess compound concentration-dependent activity.
as §1
The quantification of FSK-stimulated cAMP accumulation using the DiscoveRx HitHunter assay (DiscoveRx, Eurofins, Fremont, CA, USA) has been described in detail previously elsewhere. Briefly, 20,000 cells/well were plated in low-volume 96-well plates and incubated overnight in Opti-MEM with 1% FBS at 37 °C and 5% CO2. The next day, the media were replaced with cell assay buffer (DiscoveRx). Immediately after this, the cells were simultaneously treated with 10 µM FSK and ligands for 90 min. Subsequent additions of cAMP antibody solution and cAMP working detection solutions followed the manufacturer’s directions (DiscoveRx) and cells were stored for 60 min at room temperature. cAMP solution A (DiscoveRx) was added according to the manufacturer’s directions followed by another 60 min room temperature incubation prior to chemiluminescence being measured on a Cytation5 plate reader (top read, gain 200, integration time 10,000 ms).
as §2, §3

hCB1R = target: T2, hCB1R (Homo sapiens, UniProt P21554); test: [3H]CP55,940 radioligand displacement assay, CHO cell membranes; type: binding; details: for displacement of [3H]CP55,940 at hCB1R: CHO membranes, 0.1 nM-10 μM compounds
T2 construct: expressed in transfected cells; host or cells: CHO cells (membranes)
T2 sequence (P21554 whole entry): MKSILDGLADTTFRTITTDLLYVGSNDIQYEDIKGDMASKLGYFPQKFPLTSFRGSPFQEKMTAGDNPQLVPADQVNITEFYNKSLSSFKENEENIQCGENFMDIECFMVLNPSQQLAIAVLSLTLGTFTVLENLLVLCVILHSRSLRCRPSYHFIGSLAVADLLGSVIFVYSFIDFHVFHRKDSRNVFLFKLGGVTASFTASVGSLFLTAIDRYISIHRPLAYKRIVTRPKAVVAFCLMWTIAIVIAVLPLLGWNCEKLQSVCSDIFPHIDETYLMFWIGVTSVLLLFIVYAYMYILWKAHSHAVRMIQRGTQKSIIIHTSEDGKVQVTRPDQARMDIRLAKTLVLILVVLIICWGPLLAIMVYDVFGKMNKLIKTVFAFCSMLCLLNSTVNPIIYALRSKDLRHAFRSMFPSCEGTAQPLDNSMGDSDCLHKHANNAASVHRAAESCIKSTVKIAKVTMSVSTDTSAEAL
Procedure: as §1
(§5) We have previously described radioligand displacement assays in detail. […] Binding reactions were terminated by ice-cold tris binding buffer and subsequent vacuum filtration (24-well sampling manifold (Brandel cell harvester; Brandel Inc., Gaithersburg, MD, USA)) using Brandel GF/B filters soaked in wash buffer at 4 °C for at least 24 h. Filters were washed with 1.2 mL of tris-binding buffer six times, then oven-dried for 60 min before being incubated in 3 mL of scintillation fluid (Ultima Gold XR, PerkinElmer, Seer Green, Buckinghamshire, UK). Radioactivity was quantified by liquid scintillation spectrometry. All compounds were first prepared at 10 mM solutions in DMSO. The final vehicle concentration for assays was 0.1% DMSO. All assays were performed in duplicate.
as §2

hCB2R [4] = target: T1, hCB2R; test: as above; type: binding; details: for displacement of [3H]CP55,940 at hCB2R: CHO membranes, 0.1 nM-10 μM compounds
Procedure: as §1, §5, §2

SH-SY5Y cells [5] = tested on: SH-SY5Y cells; parameters: method as in PMID 26842917; details: presumably via a CB2R-independent mechanism; cited from earlier work
SH-SY5Y cells [6] = test: SRB cell viability assay with pre-incubation of CB2R antagonist SR144528; type: cell-based, human; details: SR144528 1 µM added 1 h before, 72 h, agonists at 10, 20 and 40 µM
Procedure: To address a CB2R-mediated mechanism, we tested FG158a, LV62, and FG160a at inhibitory concentrations in SH-SY5Y cells pre-incubated with the CB2R antagonist SR144528. After 72 h of treatment, we observed a reversion in cell viability at 20 and 40 µM of FG158a and FG160a in the presence of SR144528. The inhibitory effect of LV62 was reverted only at 40 µM (Figure 5).
as §4, with “In combinatory assays, similar procedures were adopted and the CB2R antagonist SR144528 (1 µM) was added 1 h before the CB2 agonists (10, 20 and 40 µM) to SHSY5Y cells that were harvested as described above after 72 h of incubation.” left out
Figure 5 CB2R–mediated effect on cell viability. […] Figures (A–C) report cell viability (mean of 3 independent experiments) expressed as absorbance (Abs). The statistical significance was calculated with two-way ANOVA using Tukey’s multiple comparisons test (* p ≤ 0.05).

[7] = CHO cells expressing human CB2R, 90 min
[8] = CHO cells expressing human CB2R, 10 μM FSK, 90 min

T1 sequence (P34972 whole entry): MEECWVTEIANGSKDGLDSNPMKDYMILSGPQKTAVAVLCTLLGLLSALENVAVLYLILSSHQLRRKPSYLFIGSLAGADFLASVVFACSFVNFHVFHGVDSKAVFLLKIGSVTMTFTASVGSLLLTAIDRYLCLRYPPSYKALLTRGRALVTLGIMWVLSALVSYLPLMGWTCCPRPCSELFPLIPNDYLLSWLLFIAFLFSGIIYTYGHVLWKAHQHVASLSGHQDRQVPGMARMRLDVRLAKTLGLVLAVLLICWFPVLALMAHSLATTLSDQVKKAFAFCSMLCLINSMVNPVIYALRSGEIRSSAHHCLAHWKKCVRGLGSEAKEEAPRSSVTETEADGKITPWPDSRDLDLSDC

CC1CCC(NC(=O)c2cc3cccnc3n(CCCCCCl)c2=O)CC1 (stereo not drawn) [FG160a, 1-(5-chloropentyl)-N-(4-methylcyclohexyl)-2-oxo-1,2-dihydro-1,8-naphthyridine-3-carboxamide]
EC50 (hCB2R [1]): > 10000 nM
β-Arrestin2 Recruitment Emax (% CP55,940) ± S.E.M (hCB2R [1]; [7]): 41 ± 1.0 % CP55,940
melting point: 124 to 126 °C
effect on cell viability (SH-SY5Y cells [2]): inhibited cell viability
IC50 (SH-SY5Y cells [2]): 13200 nM
EC50 (hCB2R [3]): 600 nM
modulation of cAMP response (hCB2R [3]; 10 μM FSK, 90 min): able to modulate the cAMP response
cAMP Inhibition Emax (% CP55,940) ± S.E.M (hCB2R [3]; [8]): 90 ± 3.1 % CP55,940
Ki (hCB1R): > 10000 nM
displacement of [3H]CP55,940 at hCB1R (hCB1R): not able to displace [^3H]CP55,940
Ki (hCB2R [4]): 16.5 nM
displacement of [3H]CP55,940 at hCB2R (hCB2R [4]): fully displaced [^3H]CP55,940

CC1CCC(NC(=O)c2cc3cccnc3n(CCCCCN=[N+]=[N-])c2=O)CC1 (stereo not drawn) [FG161a, 1-(5-azidopentyl)-N-(4-methylcyclohexyl)-2-oxo-1,2-dihydro-1,8-naphthyridine-3-carboxamide]
β-Arrestin2 Recruitment Emax (% CP55,940) ± S.E.M (hCB2R [1]; [7]): 47 ± 1.8 % CP55,940
EC50 (hCB2R [1]; CHO cells expressing human CB2R, 90 min, read-out: β-Arrestin2 Recruitment EC50 (95% C.I.)): > 10000 nM
melting point: 115 to 117 °C
effect on cell viability (SH-SY5Y cells [2]): inhibited cell viability
IC50 (SH-SY5Y cells [2]): 27500 nM
modulation of cAMP response (hCB2R [3]; 10 μM FSK, 90 min): able to modulate the cAMP response
cAMP Inhibition Emax (% CP55,940) ± S.E.M (hCB2R [3]; [8]): 78 ± 11 % CP55,940
EC50 (hCB2R [3]; CHO cells expressing human CB2R, 10 μM FSK, 90 min, read-out: cAMP Inhibition EC50 (95% C.I.)): 760 nM
displacement of [3H]CP55,940 at hCB1R (hCB1R): not able to displace [^3H]CP55,940
Ki (hCB1R; read-out: CB1R Ki): > 10000 nM
Ki (hCB2R [4]): 45 nM
displacement of [3H]CP55,940 at hCB2R (hCB2R [4]): fully displaced [^3H]CP55,940

CCCC(C)(C)c1ccc2c(c1)OC(C)(C)[C@@H]1CC=C(C)C[C@@H]21 [JWH-133]
effect on SH-SY5Y cell proliferation (SH-SY5Y cells [5]): inhibits SH-SY5Y cell proliferation

CC1CCC(NC(=O)c2cc3cccnc3n(CCCCCO)c2=O)CC1 (stereo not drawn) [LV62, reference compound]
EC50 (hCB2R [1]): 63 nM
β-arrestin2 recruitment (hCB2R [1]; CHO cells expressing hCB2R, 90 min): produced an increase in the β-arrestin2 recruitment
β-Arrestin2 Recruitment Emax (% CP55,940) ± S.E.M (hCB2R [1]; [7]): 65 ± 1.4 % CP55,940
reversion in cell viability in the presence of SR144528, agonist concentration (SH-SY5Y cells [6]): only at 40
effect on cell viability (SH-SY5Y cells [2]): inhibited cell viability
IC50 (SH-SY5Y cells [2]): 38100 nM
EC50 (hCB2R [3]): 34 nM
cAMP Inhibition Emax (% CP55,940) ± S.E.M (hCB2R [3]; [8]): 110 ± 8.8 % CP55,940
Ki (hCB1R): > 10000 nM
displacement of [3H]CP55,940 at hCB1R (hCB1R): not able to displace [^3H]CP55,940
Ki (hCB2R [4]): 37 nM
